Earlier results as cited in patent US20040038863A1, “Medical indication” (priority 2002, published 2004).

Settings: in postmenopausal women; background value used to set the washout period

terminal elimination half-life: approximately 24 hours
Structure (SMILES): C=C1C[C@@H]2[C@H](CC[C@]3(C)C(=O)CC[C@@H]23)[C@@]2(C)C=CC(=O)C=C12 [exemestane, 6-methylenandrosta-1,4-diene-3,17-dione]
